Experimental data: US8415469B2, “Compounds and methods for kinase modulation, and indications therefor” (Plexxikon Inc., priority 2005, dated 2013)
Values belong to the molecule of their own block, whether it stands above or below them.

Experiments:
Type in all cases: biochemical
Gsk3β = Gsk3β (Homo sapiens, UniProt P49841); assay: AlphaScreen kinase assay, Gsk3β; conditions: read-out: IC50, activity toward kinase Gsk3β
From the text: AlphaScreen assay was used to screen additional kinases. The assay is similarly dependent on the phosphorylation of a peptide substrate. In this assay, an antibody that recognizes phosphorylated substrate is bound to an acceptor bead. The peptide substrate is attached to biotin, which binds to a donor head that contains streptavidin. Thus phosphorylated substrate is bound by antibody and streptavidin, bringing the donor and acceptor heads into close proximity when kinase is not inhibited. The donor produces singlet oxygen which results in emission from the acceptor when they are in close proximity. Conversely, when kinase is inhibited, the donor and acceptor beads are not associated and the emission from the acceptor is reduced.
AlphaScreen assays were done using compounds dissolved in DMSO to a concentration of 20 mM. The compounds were diluted accordingly to the desired final concentrations in each sample well, using 1:3 serial dilution for a total of 8 concentration points.

Ret = biological target: T1, Ret (Homo sapiens, UniProt P07949); assay: AlphaScreen kinase assay, Ret; conditions: read-out: IC50, activity toward kinase Ret
T1 construct: P1378.pET-SF BI-PTP RET H661-R1012 HIS; made in house
T1 sequence (P07949 with tags, fused parts or gaps): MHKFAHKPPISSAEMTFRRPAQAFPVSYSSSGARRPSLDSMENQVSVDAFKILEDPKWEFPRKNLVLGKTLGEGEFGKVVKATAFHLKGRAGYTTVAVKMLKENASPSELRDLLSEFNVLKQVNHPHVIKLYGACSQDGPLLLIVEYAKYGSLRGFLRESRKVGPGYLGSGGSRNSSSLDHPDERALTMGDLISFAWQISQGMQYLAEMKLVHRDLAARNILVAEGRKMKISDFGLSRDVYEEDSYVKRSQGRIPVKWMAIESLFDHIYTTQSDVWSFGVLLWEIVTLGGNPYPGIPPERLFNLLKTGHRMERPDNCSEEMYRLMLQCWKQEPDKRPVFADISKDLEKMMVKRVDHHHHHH

FGFR1 = biological target: T2, FGFR1 (Homo sapiens, UniProt P11362, C488A/C584S); assay: AlphaScreen kinase assay, FGFR1; conditions: read-out: IC50, activity toward kinase FGFR
T2 construct: P1351.pET N6 BI-PTP FGFR A458-E765-X C488A, C584S; made in house; host or cells: E. coli (PTP1B co-expressed)

B-Raf V600E = biological target: T3, B-Raf V600E (Homo sapiens, UniProt P15056, V600E); assay: AlphaScreen kinase assay, B-Raf V600E; conditions: read-out: IC50, activity toward kinase B-Raf V600E
T3 construct: P4254. pFastBacBD-CDC37 BRAF D437-K722-X, V600E; His6 with pFastBac HT leader (TEV site) (N); made in house; host or cells: Sf9 (baculovirus; chaperone CDC37 co-expressed)

B-Raf = biological target: T4, B-Raf (Homo sapiens, UniProt P15056); assay: AlphaScreen kinase assay, B-Raf; conditions: read-out: IC50, activity toward kinase B-Raf
T4 construct: purchased Upstate Biotechnology

c-Raf-1 = biological target: T5, c-Raf-1 (Homo sapiens, UniProt P04049); assay: AlphaScreen kinase assay, c-Raf-1; conditions: read-out: IC50, activity toward kinase c-Raf-1
T5 construct: purchased Upstate Biotechnology

MAP4K4 = MAP4K4 (Homo sapiens, UniProt O95819); assay: AlphaScreen kinase assay, MAP4K4; conditions: read-out: IC50, activity toward kinase MAP4K4
Fak = biological target: T6, Fak (Homo sapiens, UniProt Q05397); assay: AlphaScreen kinase assay, Fak; conditions: read-out: IC50, activity toward kinase Fak
T6 construct: P1358.pFastBacHtb FAK S411-Q686-X; His6 with pFastBacHTb leader (TEV site) (N); made in house; host or cells: Sf9 (baculovirus)

Jnk1 = biological target: T7, Jnk1 (Homo sapiens, UniProt P45983); assay: AlphaScreen kinase assay, Jnk1; conditions: read-out: IC50, activity toward kinase Jnk1
T7 construct: purchased Upstate Biotechnology

Fms = biological target: T8, Fms (Homo sapiens, UniProt P07333); assay: AlphaScreen kinase assay, Fms; conditions: read-out: IC50, activity toward kinase Fms
T8 construct: purchased Upstate Biotechnology

Pyk2 = biological target: T9, Pyk2 (Homo sapiens, UniProt Q14289); assay: AlphaScreen kinase assay, Pyk2; conditions: read-out: IC50, activity toward kinase Pyk2
T9 construct: purchased Upstate Biotechnology

Flt1 = biological target: T10, Flt1 (Homo sapiens, UniProt P17948); assay: AlphaScreen kinase assay, Flt1; conditions: read-out: IC50, activity toward kinase Flt1
T10 construct: P1826.pETN6 BI-PTP FLT1 M799-D1165-X WT; His6 (N); made in house; host or cells: E. coli (PTP1B co-expressed)
T10 sequence (P17948 with tags, fused parts or gaps): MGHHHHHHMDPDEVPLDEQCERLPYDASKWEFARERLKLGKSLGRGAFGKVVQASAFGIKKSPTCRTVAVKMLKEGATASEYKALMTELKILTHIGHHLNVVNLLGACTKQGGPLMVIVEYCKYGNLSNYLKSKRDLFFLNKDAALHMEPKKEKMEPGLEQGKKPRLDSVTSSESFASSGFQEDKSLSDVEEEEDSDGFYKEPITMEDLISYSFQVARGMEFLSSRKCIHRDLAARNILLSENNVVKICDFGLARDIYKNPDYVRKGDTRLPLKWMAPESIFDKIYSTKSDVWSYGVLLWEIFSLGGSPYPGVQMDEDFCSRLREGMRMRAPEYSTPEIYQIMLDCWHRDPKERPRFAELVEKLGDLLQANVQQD

Kit = biological target: T11, Kit (Homo sapiens, UniProt P10721); assay: AlphaScreen kinase assay, Kit; conditions: read-out: IC50, activity toward kinase Kit
T11 construct: P1332.N6 BI PTP KIT M552-K948-X COD; His6 (N); made in house; host or cells: E. coli (PTP1B co-expressed)

Jnk3 = biological target: T12, Jnk3 (Homo sapiens, UniProt P53779); assay: AlphaScreen kinase assay, Jnk3; conditions: read-out: IC50, activity toward kinase Jnk3
T12 construct: purchased Upstate Biotechnology

Kdr = biological target: T13, Kdr (Homo sapiens, UniProt P35968); assay: Z'-Lyte FRET kinase assay (Invitrogen), Kdr; conditions: read-out: IC50, activity toward kinase Kdr
T13 construct: purchased Invitrogen (assay run by Invitrogen)

Btk = biological target: T14, Btk (Homo sapiens, UniProt Q06187); assay: Z'-Lyte FRET kinase assay (Invitrogen), Btk; conditions: read-out: IC50, activity toward kinase Btk
T14 construct: purchased Invitrogen (assay run by Invitrogen)

Stk6 = biological target: T15, Stk6 (Homo sapiens, UniProt O14965); assay: Z'-Lyte FRET kinase assay (Invitrogen), Stk6; conditions: read-out: IC50, activity toward kinase Stk6
T15 construct: purchased Invitrogen (Carlsbad, Calif.), screening service
T15 sequence (O14965 1-403): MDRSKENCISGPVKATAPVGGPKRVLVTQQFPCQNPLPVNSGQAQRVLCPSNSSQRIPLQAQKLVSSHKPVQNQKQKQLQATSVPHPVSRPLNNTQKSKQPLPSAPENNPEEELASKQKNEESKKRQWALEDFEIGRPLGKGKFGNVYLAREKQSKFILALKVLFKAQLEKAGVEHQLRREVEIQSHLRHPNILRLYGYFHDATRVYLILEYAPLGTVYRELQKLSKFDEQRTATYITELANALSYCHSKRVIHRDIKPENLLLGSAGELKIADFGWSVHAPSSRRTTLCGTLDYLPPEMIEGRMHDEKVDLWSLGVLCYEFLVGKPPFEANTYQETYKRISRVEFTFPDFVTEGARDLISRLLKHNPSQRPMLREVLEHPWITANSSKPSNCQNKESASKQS

Met = biological target: T16, Met (Homo sapiens, UniProt P08581); assay: AlphaScreen kinase assay, Met; conditions: read-out: IC50, activity toward kinase Met
T16 construct: P1818.pETN6 BI-PTP MET G1056-G1364-X WT; His6 (N); made in house; host or cells: E. coli (PTP1B co-expressed)
Method in brief: (§1)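 Emission from acceptor beads reports phosphorylated biotin-peptide bridging antibody-coated acceptor and streptavidin donor beads; loss of signal reflects kinase inhibition. Eight-point, threefold dilution series prepared from 20 mM DMSO stocks.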

MAP2K1 = biological target: T17, MAP2K1 (Homo sapiens, UniProt Q02750); assay: Z'-Lyte FRET kinase assay (Invitrogen), MAP2K1; conditions: read-out: IC50, activity toward kinase MAP2K1
T17 construct: purchased Invitrogen (assay run by Invitrogen)

Src = biological target: T18, Src (Homo sapiens, UniProt P12931); assay: AlphaScreen kinase assay, Src; conditions: read-out: IC50, activity toward kinase Src
T18 construct: P1144. pET-N6 BI-PTP SRC V86-L536-X; made in house

Abl = biological target: T19, Abl (Homo sapiens, UniProt P00519); assay: AlphaScreen kinase assay, Abl; conditions: read-out: activity toward kinase Abl, IC50
T19 construct: P1121. pET-SPEC BI-PTP Abl G227-V515-X; His6 (N); made in house; host or cells: E. coli (PTP1B co-expressed)
T19 sequence (P00519 with tags, fused parts or gaps): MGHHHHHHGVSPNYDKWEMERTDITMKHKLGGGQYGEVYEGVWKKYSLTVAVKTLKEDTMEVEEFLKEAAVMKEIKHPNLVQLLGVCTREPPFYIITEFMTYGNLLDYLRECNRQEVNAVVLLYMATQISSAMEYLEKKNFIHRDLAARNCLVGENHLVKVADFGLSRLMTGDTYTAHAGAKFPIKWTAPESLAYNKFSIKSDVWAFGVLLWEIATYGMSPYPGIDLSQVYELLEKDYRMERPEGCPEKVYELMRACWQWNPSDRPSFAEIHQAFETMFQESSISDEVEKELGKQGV
Method in brief: as §1

Flt4 = biological target: T20, Flt4 (Homo sapiens, UniProt P35916); assay: AlphaScreen kinase assay, Flt4; conditions: read-out: IC50, activity toward kinase Flt4
T20 construct: purchased ProQinase GmbH (Freiburg, Germany)
Method in brief: as §1

Sequence of Gsk3β (P49841 whole entry): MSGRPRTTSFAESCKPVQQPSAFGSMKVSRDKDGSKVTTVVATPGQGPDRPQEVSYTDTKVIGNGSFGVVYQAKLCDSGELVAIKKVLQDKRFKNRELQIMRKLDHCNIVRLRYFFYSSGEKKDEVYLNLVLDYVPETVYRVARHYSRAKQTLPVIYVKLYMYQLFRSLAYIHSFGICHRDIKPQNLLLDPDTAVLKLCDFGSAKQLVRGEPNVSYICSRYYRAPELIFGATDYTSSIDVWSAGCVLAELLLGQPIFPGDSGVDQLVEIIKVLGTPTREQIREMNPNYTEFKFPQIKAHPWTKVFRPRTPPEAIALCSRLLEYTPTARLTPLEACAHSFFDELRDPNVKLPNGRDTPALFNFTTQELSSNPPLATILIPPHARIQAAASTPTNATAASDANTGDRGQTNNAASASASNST
T3 sequence (P15056 with tags, fused parts or gaps V600E): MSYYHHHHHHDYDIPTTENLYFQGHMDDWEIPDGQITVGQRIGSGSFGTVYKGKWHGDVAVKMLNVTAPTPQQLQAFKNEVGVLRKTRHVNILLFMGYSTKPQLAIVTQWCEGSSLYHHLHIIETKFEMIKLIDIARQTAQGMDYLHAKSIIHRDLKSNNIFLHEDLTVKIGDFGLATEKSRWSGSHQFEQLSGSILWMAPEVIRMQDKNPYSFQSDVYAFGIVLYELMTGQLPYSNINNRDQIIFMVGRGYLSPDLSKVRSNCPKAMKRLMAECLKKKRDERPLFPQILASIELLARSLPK
T5 sequence (P04049 whole entry): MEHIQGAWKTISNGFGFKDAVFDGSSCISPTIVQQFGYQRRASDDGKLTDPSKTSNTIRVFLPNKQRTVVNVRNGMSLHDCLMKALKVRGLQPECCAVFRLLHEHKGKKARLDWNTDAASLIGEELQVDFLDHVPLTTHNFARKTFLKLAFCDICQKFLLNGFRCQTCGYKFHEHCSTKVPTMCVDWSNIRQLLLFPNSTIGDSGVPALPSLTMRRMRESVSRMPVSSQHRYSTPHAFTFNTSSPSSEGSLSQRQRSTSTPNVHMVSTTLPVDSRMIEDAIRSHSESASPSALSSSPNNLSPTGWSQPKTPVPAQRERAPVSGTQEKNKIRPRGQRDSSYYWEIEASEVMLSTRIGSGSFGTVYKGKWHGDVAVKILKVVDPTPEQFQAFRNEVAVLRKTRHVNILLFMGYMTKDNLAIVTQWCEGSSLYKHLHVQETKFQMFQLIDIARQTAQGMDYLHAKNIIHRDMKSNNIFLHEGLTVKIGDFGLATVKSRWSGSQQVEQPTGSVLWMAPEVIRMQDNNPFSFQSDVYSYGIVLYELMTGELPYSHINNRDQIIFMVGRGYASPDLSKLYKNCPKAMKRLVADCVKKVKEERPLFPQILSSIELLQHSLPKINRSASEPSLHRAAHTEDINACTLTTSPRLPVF
T11 sequence (P10721 with tags, fused parts or gaps): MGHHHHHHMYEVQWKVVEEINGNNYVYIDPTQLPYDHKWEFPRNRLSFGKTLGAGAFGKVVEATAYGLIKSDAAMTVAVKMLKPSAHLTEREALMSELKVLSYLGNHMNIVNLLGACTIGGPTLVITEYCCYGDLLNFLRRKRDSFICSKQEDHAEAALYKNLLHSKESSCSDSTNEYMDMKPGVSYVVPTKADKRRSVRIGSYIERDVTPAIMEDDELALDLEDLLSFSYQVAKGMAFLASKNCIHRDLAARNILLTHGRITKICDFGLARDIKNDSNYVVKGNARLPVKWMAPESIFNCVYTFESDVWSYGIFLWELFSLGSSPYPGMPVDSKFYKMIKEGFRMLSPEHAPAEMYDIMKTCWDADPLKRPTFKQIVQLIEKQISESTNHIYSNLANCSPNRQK
T2 sequence (P11362 458-765 C488A/C584S): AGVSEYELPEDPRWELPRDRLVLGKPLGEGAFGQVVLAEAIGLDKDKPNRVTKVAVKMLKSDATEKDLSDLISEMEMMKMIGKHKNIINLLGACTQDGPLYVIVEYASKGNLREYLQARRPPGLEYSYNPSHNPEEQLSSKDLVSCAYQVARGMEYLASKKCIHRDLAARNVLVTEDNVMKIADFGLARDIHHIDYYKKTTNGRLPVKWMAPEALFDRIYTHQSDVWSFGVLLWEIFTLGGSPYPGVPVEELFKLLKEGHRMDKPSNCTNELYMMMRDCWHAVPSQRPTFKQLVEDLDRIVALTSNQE
T13 sequence (P35968 20-1356): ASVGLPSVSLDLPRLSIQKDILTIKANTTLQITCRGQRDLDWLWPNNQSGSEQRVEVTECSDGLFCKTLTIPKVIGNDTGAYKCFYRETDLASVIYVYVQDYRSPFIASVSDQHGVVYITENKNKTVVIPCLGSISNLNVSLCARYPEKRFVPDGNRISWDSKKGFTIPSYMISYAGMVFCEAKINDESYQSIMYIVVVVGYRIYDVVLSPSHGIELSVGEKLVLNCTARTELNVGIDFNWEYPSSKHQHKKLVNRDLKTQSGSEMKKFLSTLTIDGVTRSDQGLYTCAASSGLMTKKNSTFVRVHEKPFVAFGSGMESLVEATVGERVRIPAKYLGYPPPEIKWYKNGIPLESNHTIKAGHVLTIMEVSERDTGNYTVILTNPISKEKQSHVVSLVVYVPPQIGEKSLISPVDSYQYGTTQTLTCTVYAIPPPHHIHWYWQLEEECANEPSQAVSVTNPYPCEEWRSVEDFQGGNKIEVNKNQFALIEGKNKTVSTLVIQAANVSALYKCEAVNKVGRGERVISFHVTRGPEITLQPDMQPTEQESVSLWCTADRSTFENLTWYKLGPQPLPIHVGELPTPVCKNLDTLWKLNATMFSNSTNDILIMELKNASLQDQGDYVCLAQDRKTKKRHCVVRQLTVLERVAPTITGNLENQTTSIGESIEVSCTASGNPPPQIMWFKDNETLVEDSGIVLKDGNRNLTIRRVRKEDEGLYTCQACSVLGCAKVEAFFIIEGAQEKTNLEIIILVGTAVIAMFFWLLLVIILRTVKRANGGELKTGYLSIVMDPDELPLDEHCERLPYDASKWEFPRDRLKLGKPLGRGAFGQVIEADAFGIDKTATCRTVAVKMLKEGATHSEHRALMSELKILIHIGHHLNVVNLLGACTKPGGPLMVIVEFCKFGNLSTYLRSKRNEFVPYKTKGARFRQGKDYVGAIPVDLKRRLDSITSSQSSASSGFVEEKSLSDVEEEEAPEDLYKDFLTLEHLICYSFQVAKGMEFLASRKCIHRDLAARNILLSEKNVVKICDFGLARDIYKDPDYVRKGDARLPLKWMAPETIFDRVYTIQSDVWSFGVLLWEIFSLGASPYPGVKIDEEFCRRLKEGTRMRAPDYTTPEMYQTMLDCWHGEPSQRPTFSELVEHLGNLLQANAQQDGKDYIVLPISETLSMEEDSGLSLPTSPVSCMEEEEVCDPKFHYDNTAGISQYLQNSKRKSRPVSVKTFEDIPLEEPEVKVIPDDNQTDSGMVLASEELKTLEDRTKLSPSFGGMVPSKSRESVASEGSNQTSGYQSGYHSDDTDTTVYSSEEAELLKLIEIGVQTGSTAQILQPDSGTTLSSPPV
T8 sequence (P07333 20-972): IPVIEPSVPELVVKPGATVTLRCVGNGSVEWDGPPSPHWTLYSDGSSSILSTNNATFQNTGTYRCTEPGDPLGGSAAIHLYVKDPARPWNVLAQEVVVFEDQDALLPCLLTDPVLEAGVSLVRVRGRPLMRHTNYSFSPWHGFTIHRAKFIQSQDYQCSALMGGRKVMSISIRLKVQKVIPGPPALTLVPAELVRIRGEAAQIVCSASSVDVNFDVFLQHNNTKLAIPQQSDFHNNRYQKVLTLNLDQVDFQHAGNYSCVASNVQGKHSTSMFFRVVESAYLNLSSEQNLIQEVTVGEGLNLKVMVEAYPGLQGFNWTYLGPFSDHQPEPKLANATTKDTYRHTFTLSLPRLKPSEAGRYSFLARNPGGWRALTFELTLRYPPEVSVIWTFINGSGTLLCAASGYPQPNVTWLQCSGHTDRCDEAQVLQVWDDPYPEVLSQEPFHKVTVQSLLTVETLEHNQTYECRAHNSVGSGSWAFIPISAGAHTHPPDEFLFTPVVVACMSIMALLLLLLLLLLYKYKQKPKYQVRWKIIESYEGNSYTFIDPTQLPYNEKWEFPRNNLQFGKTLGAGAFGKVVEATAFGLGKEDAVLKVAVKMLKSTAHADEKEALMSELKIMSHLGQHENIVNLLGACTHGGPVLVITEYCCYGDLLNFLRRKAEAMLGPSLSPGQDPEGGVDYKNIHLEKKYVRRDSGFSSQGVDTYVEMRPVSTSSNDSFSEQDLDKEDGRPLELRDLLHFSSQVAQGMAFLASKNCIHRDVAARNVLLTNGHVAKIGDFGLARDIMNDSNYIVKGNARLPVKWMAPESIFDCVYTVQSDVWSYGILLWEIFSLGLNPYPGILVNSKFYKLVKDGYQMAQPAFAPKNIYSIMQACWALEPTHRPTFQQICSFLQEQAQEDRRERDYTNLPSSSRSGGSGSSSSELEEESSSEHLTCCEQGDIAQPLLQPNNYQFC
T17 sequence (Q02750 whole entry): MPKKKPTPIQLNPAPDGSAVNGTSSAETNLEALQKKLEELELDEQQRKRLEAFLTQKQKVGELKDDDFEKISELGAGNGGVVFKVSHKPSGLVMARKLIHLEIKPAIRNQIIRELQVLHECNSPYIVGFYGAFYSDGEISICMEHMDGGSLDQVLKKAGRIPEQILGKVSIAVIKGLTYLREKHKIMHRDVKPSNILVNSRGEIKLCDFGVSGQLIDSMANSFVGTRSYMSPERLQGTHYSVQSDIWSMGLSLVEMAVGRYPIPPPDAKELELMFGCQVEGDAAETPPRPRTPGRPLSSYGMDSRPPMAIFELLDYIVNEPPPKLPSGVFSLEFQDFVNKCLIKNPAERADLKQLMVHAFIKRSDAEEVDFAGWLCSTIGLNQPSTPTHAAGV

IC50 (Gsk3β): ≤ 10 µM
IC50 (Ret): ≤ 10 µM
Compound: CS(=O)(=O)Nc1cccc(-c2ccnc3[nH]cc(C(=O)c4ccccc4F)c23)c1 [Compound P-0236]

IC50 (Btk): ≤ 10 µM
IC50 (Stk6): ≤ 10 µM
IC50 (Gsk3β): ≤ 10 µM
IC50 (Ret): ≤ 10 µM
Compound: Cc1ccccc1C(=O)c1c[nH]c2nccc(-c3cccc(/C=C/C(=O)O)c3)c12 [Compound P-0094]

IC50 (Gsk3β): ≤ 10 µM
Compound: Cc1cc(C)cc(-c2ccnc3[nH]cc(Sc4ccccn4)c23)c1 [Compound P-0273]

IC50 (Met): ≤ 10 µM
IC50 (Kdr): ≤ 10 µM
IC50 (MAP2K1): ≤ 10 µM
IC50 (FGFR1): ≤ 10 µM
Compound: COc1cccc(C(=O)c2c[nH]c3nccc(Cl)c23)c1 [Compound P-0149]

IC50 (Gsk3β): ≤ 10 µM
Compound: O=[N+]([O-])c1cccc(Sc2c[nH]c3nccc(-c4cccc(C(F)(F)F)c4)c23)c1 [Compound P-0969]

IC50 (B-Raf V600E): ≤ 10 µM
IC50 (Gsk3β): ≤ 10 µM
IC50 (Flt1): ≤ 10 µM
IC50 (Kit): ≤ 10 µM
IC50 (Ret): ≤ 10 µM
IC50 (Src): ≤ 10 µM
IC50 (FGFR1): ≤ 10 µM
Compound: NC(=O)c1cccc(-c2ccnc3[nH]cc(C(=O)c4ccccc4F)c23)c1 [Compound P-1181]

IC50 (B-Raf V600E): ≤ 10 µM
IC50 (Gsk3β): ≤ 10 µM
Compound: Cc1cc(C)cc(-c2ccnc3[nH]cc(Sc4ccccc4)c23)c1 [Compound P-0252]

IC50 (Abl): ≤ 10 µM
IC50 (Flt4): ≤ 10 µM
IC50 (Kdr): ≤ 10 µM
IC50 (Kit): ≤ 10 µM
IC50 (Ret): ≤ 10 µM
IC50 (MAP2K1): ≤ 10 µM
IC50 (FGFR1): ≤ 10 µM
Compound: COc1cccc(C(=O)c2c[nH]c3ncc(-c4cccnc4)cc23)c1 [Compound P-0167]

More lines, now with the values behind:

Compound: Cc1cc(C)cc(-c2ccnc3[nH]ccc23)c1 [Compound P-0159]
IC50 (Gsk3β): ≤ 10 µM
IC50 (Ret): ≤ 10 µM

Compound: CC(C)(C)OC(=O)Nc1ccc(F)c(C(=O)c2c[nH]c3ncc(Br)cc23)c1F [Compound P-1142]
IC50 (Gsk3β): ≤ 10 µM
IC50 (FGFR1): ≤ 10 µM

Compound: O=C(c1c(F)ccc(NS(=O)(=O)c2ccccc2)c1F)c1c[nH]c2ncc(F)cc12 [Compound P-0902, N-[2,4-Difluoro-3-(5-fluoro-1H-pyrrolo[2,3-b]pyridine-3-carbonyl)-phenyl]-benzenesulfonamide]
IC50 (B-Raf V600E): ≤ 10 µM
IC50 (B-Raf): ≤ 10 µM
IC50 (c-Raf-1): ≤ 10 µM
IC50 (MAP4K4): ≤ 10 µM
IC50 (Gsk3β): ≤ 10 µM
IC50 (FGFR1): ≤ 10 µM

Compound: CC(=O)Nc1ccc(F)c(C(=O)c2c[nH]c3ncc(-c4cccnc4)cc23)c1F [Compound P-1002, N-[2,4-Difluoro-3-(5-pyridin-3-yl-1H-pyrrolo[2,3-b]pyridine-3-carbonyl)-phenyl]-acetamide]
IC50 (Fak): ≤ 10 µM
IC50 (Jnk1): ≤ 10 µM
IC50 (B-Raf V600E): ≤ 10 µM
IC50 (Fms): ≤ 10 µM
IC50 (c-Raf-1): ≤ 10 µM
IC50 (Pyk2): ≤ 10 µM
IC50 (Gsk3β): ≤ 10 µM
IC50 (Flt1): ≤ 10 µM
IC50 (Kit): ≤ 10 µM
IC50 (FGFR1): ≤ 10 µM
IC50 (Jnk3): ≤ 10 µM

Compound: Cc1c(NS(C)(=O)=O)cccc1C(=O)c1c[nH]c2ncc(Br)cc12 [Compound P-0180, N-[3-(5-Bromo-1H-pyrrolo[2,3-b]pyridine-3-carbonyl)-2-methyl-phenyl]-methanesulfonamide]
IC50 (B-Raf V600E): ≤ 10 µM
IC50 (B-Raf): ≤ 10 µM
IC50 (Fms): ≤ 10 µM
IC50 (c-Raf-1): ≤ 10 µM
IC50 (Gsk3β): ≤ 10 µM
IC50 (Kdr): ≤ 10 µM
IC50 (Flt1): ≤ 10 µM
IC50 (Kit): ≤ 10 µM
IC50 (FGFR1): ≤ 10 µM

Compound: Cc1ccc(-c2c(C)[nH]c3ncccc23)s1 [Compound P-0207]
IC50 (Stk6): ≤ 10 µM
IC50 (Gsk3β): ≤ 10 µM

Compound: Nc1cccc(-c2c(CN3CCC(C(=O)O)CC3)[nH]c3ncccc23)c1 [Compound P-0462]
IC50 (Gsk3β): ≤ 10 µM
